Assay results taken from patent US20030229105A1, “Treatment of autoimmune disorders” (Cyclacel Limited, priority 2002, published 2003).

Columns and labels:
[1] = tested on: uninfected T and monocytic cells; experiment: Initial test of cdk inhibitors on uninfected cells (data not shown)
CEM cells = experiment: Cell proliferation, [3H]thymidine incorporation; assay type: cell-based; settings: ca. 10 μM
Text: We next sought to determine whether the inhibition of HIV-1 transcription, observed above, could be mediated specifically by cdk inhibitors or by general cell cycle inhibitors. To distinguish between the two possibilities, we performed transfection experiments with all three cdk inhibitors tested above and two other well-established cell cycle inhibitors, namely, hydroxyurea and nocodazole. Hydroxyurea blocks DNA replication by inhibiting ribonucleotide reductase and thus arrests cell cycle progression at the G1/S checkpoint, while nocodazole blocks at G2/M by promoting tubulin depolymerization. […] Therefore, the basal transcription of HIV-1 was inhibited by purine analogs and not general cell cycle inhibitors.
FIG. 3 discloses inhibition of HIV-1 basal and activated transcription by cdk inhibitors. […] The graphs at the bottom of the figure represent the effect of various concentrations of general cell cycle inhibitors (hydroxyurea and nocodazole) on CEM cells. (B) Inhibition of activated transcription in CEM cells was examined using transfected HIV-1 LTR-CAT, together with pcTat plasmid. […]
Cells (CEM) were initially treated with various concentrations of hydroxyurea or nocodazole and evaluated after 0, 12, 24, 48, 60, and 72 h. […] The amount of radioactivity incorporated into the DNA was measured in a liquid scintillation counter (Packard) and expressed as the counts per minute (cpm). […]

HIV-1 = experiment: p24 antigen ELISA of supernatants from induced HIV-1 latently infected cells (ACH2, 8E5, U1); assay type: cell-based; settings: for inhibition of HIV-1 replication, prolonged treatment: U1 and 8E5 cells, up to 21 days, 5 or 10 μM (data not shown); for postintegrative HIV-1 progeny formation: low concentrations (data not shown)
Description: We chose HIV-1 stably integrated cells, lymphocytic ACH2 and 8E5 cell lines, as well as monocytic U1 cells (and their uninfected parental counterparts CEM and U937, respectively) for our initial studies, since viral transcription could be activated and scored through signals, such as Tat, TNF-α or phorbol myristate acetate (PMA) and PHA. We first activated viruses in these cells with TNF-α (10 ng/ml) at 37° C. for 2 h, followed by washing, and then we incubated cells with 10 μM concentrations of each drug. […] We next examined the effect of all three drugs on primary HIV-1 field isolates of SI and NSI strains. Activated PBMC were infected with two independent HIV-1 viral strains of SI (UG/92/029, subtype A envelope) and NSI (THA/92/001, subtype E envelope).
Five days later, the supernatants were collected, and the amount of newly synthesized HIV-1 was measured by p24 antigen assay. (B) Purified Tat (300 μg) was electroporated into ACH2, 8E5, and U1 cells and subsequently treated with various drugs for 5 days. […] Seven days later samples were collected and used for p19 gag ELISA. (E) PHA-activated PBMC (5×10^6) were infected with HIV-1 either SI (UG/92/029 Uganda strain, subtype A envelope) or NSI (THA/92/001, Thailand strain, subtype E envelope) strains. Unadsorbed viruses were washed after 6 h, and cells were cultured in fresh media with various cdk inhibitors (10 μM). Samples were collected every sixth day and used for p24 gag ELISA assay.
At days 2, 4, and 6, the supernatants were collected, and the released HIV-1 particles were measured by using a p24 antigen ELISA assay. (B) Twenty micrograms of total RNA was separated on an RNA-formaldehyde-agarose gel, transferred, and probed with full-length labeled HIV-1 genome RNA. The hybridized genomic RNA, singly spliced (structural), and doubly spliced (regulatory) RNAs were exposed and counted by using Molecular Dynamic PhosphorImager software.
Supernatants from the infected PBMC were collected and used directly for the p24 antigen assay. The p24 gag antigen level was analyzed by using the HIVAG-1 Monoclonal Antibody Kit (Abbott Laboratories, Diagnostics Division). The HTLV-1 p19 core antigen ELISA kit was from Retro-Tek (Cellular Products).

Compound	toxicity in uninfected cells [1]	inhibition of DNA synthesis (CEM cells)	inhibition of HIV-1 replication, prolonged treatment (HIV-1)	postintegrative HIV-1 progeny formation (HIV-1)
Cn1cnc2c(NCc3ccccc3)nc(NCCO)nc21 [Olomoucine]	lack of toxicity			
NC(=O)NO [hydroxyurea, reference compound]		no inhibition of DNA synthesis was observed	neither hydroxyurea nor nocodazole was able to inhibit HIV-1 replication	remained essentially the same
COC(=O)Nc1nc2ccc(C(=O)c3cccs3)cc2[nH]1 [nocodazole, reference compound]		no inhibition of DNA synthesis was observed	neither hydroxyurea nor nocodazole was able to inhibit HIV-1 replication	slightly higher
